Reference: USRE38257E1, “Piperdine derivatives and hypotensives containing the same” (Ajinomoto Co., Inc., priority 1988, dated 2003)

Test system: male spontaneously hypertensive rats
Test: Decrease in systolic blood pressure in spontaneously hypertensive rats after intravenous bolus injection, indirect (tail-cuff) method
Type: in vivo, rat
Conditions: for Decrease in systolic blood pressure (mmHg) time after administration (hour) 0.5: 0.5 hour after administration; for Decrease in systolic blood pressure (mmHg) time after administration (hour) 4: 4 hours after administration
Procedure: As test animals, four male spontaneously hypertensive rats (weight 400 to 440 g) that were sufficiently adapted for feeding and in which hypertension was confirmed were used.
Physiological saline aqueous solution containing 2.5% Nicolle and 2.5% ethanol of sample was intravenously administered by bolus injection at a dose of 1 ml per 1 kg of body weight. Systolic blood pressure after administration was measured by the indirect (tail-cuff) method.

Molecule | Decrease in systolic blood pressure (mmHg) time after administration (hour) 0.5 (dose 10 mg/kg i.v. bolus) | Decrease in systolic blood pressure (mmHg) time after administration (hour) 4 (dose 10 mg/kg i.v. bolus) | further results
C1=Cc2ccccc2C(=C2CCN(CCCc3cccnc3)CC2)c2ccccc21.Cl.Cl [Example 270, 3-(4-(5H-Dibenzo[a,d]cyclohepten-5-ylidene)-1-piperidinyl)-1-(3-pyridyl)propane dihydrochloride] | −18 mmHg | 2 mmHg | 
COc1ccc(C(=O)CCCCN2CCC(=C3c4ccccc4C=Cc4ccccc43)CC2)cc1OC.Cl [Example 169, 5-(4-(5H-Dibenzo[a,d]cyclohepten-5-ylidene)-1-piperidinyl)-3′,4′-dimethoxyvalerophenone hydrochloride] | −130 mmHg | −4 mmHg | 
CC(C)C(C#N)(CCCN1CCC(=C2c3ccccc3C=Cc3ccccc32)CC1)c1cccc(C(F)(F)F)c1.Cl (stereo not drawn) [Example 60, 5-(4-(5H-Dibenzo[a,d]cyclohepten-5-ylidene)-1-piperidinyl)-2-isopropyl-2-(3-trifluoromethylphenyl)valeronitrile hydrochloride] | −121 mmHg | −48 mmHg | 
COc1ccc(C(O)CCCN2CCC(=C3c4ccccc4C=Cc4ccccc43)CC2)cc1OC.Cl (stereo not drawn) [Example 205, 4-(4-(5H-Dibenzo[a,d]cyclohepten-5-ylidene)-1-piperidinyl)-1-(3,4-dimethoxy)phenyl-1-hydroxybutane hydrochloride] | −22 mmHg | −4 mmHg | 
CC(=O)N1CCCCC1CCCN1CCC(=C2c3ccccc3C=Cc3ccccc32)CC1.Cl (stereo not drawn) [Example 294, 1-(N-Acetyl-2-piperidinyl)-3-(4-(5H-Dibenzo[a,d]cyclohepten-5-ylidene)-1-piperidinyl)propane hydrochloride] |  |  | Decrease in systolic blood pressure (mmHg) time after administration (hour) 0.5 (dose 3 mg/kg i.v. bolus): −17 mmHg; Decrease in systolic blood pressure (mmHg) time after administration (hour) 4 (dose 3 mg/kg i.v. bolus): 7 mmHg
COc1cccc(C=CCN2CCC(=C3c4ccccc4C=Cc4ccccc43)CC2)c1[N+](=O)[O-].Cl [Example 377] |  |  | Decrease in systolic blood pressure (mmHg) time after administration (hour) 0.5 (dose 1 mg/kg i.v. bolus): −151 mmHg; Decrease in systolic blood pressure (mmHg) time after administration (hour) 4 (dose 1 mg/kg i.v. bolus): −73 mmHg
4-(4-(5H-Dibenzo[a,d]cyclohepten-5-ylidene)-1-piperidinyl)-4′-trimethoxybutyrophenone hydrochloride [Example 172] | −115 mmHg | −25 mmHg | 
CC(=O)Nc1ccccc1C=CCN1CCC(=C2c3ccccc3C=Cc3ccccc32)CC1.Cl [Example 304, 1-(2-Acetylaminocinnamyl)-4-(5H-dibenzo[a,d]cyclohepten-5-ylidene)-1-piperidine hydrochloride] | −49 mmHg | −5 mmHg | 
Cl.O=[N+]([O-])c1ccccc1CCCCN1CCC(=C2c3ccccc3C=Cc3ccccc32)CC1 [Example 255, 4-(4-(5H-Dibenzo[a,d]cyclohepten-5-ylidene)-1-piperidinyl)-1-(2-nitrophenyl)butane hydrochloride] | −62 mmHg | 2 mmHg | 
CC(C)(C)C(=O)Nc1ccc(C=CCN2CCC(=C3c4ccccc4C=Cc4ccccc43)CC2)cc1.Cl [Example 379] |  |  | Decrease in systolic blood pressure (mmHg) time after administration (hour) 0.5 (dose 1 mg/kg i.v. bolus): −118 mmHg; Decrease in systolic blood pressure (mmHg) time after administration (hour) 4 (dose 1 mg/kg i.v. bolus): −59 mmHg
Cl.O=[N+]([O-])c1ccccc1CCCN1CCC(=C2c3ccccc3C=Cc3ccccc32)CC1 [Example 250, 3-(4-(5H-Dibenzo[a,d]cyclohepten-5-ylidene)-1-piperidinyl)-1-(2-nitrophenyl)propane hydrochloride] | −136 mmHg | −30 mmHg | 
CCCCCCCCCCN1CCC(=C2c3ccccc3CCc3ccccc32)CC1.Cl [Example 185, 1-Decyl-4-(10,11-Dihydro-5H-dibenzo[a,d]cyclohepten-5-ylidene)piperidine hydrochloride] | −66 mmHg | −10 mmHg | 
Cl.O=C(CCCN1CCC(=C2c3ccccc3C=Cc3ccccc32)CC1)N1CCC(O)CC1 [Example 216, 1-(4-(4-(5H-Dibenzo[a,d]cyclohepten-5-ylidene)-1-piperidinyl)butanoyl)-4-hydroxypiperidine hydrochloride] |  |  | Decrease in systolic blood pressure (mmHg) time after administration (hour) 0.5 (dose 3 mg/kg i.v. bolus): −2 mmHg; Decrease in systolic blood pressure (mmHg) time after administration (hour) 4 (dose 3 mg/kg i.v. bolus): −27 mmHg
CCOC(=O)c1ccc(C=CCN2CCC(=C3c4ccccc4C=Cc4ccccc43)CC2)cc1.Cl [Example 382, 4-(5H-Dibenzo[a,d]cyclohepten-5-ylidene)-1-(4-ethoxycarbonylcinnamyl)piperidine hydrochloride] |  |  | Decrease in systolic blood pressure (mmHg) time after administration (hour) 0.5 (dose 3 mg/kg i.v. bolus): −129 mmHg; Decrease in systolic blood pressure (mmHg) time after administration (hour) 4 (dose 3 mg/kg i.v. bolus): −74 mmHg
Cl.N#CC(CCCCl)(CCCN1CCC(=C2c3ccccc3C=Cc3ccccc32)CC1)c1ccccc1 (stereo not drawn) [Example 52, 2-(3-Chloropropyl)-5-(4-(5H-dibenzo[a,d]cyclohepten-5-ylidene)-1-piperidinyl)-2-phenylvaleronitrile hydrochloride] | −23 mmHg | −9 mmHg | 
CCCCCCCCCCCCCCCCCCCN1CCC(=C2c3ccccc3C=Cc3ccccc32)CC1.Cl [Example 135, 4-(5H-Dibenzo[a,d]cyclohepten-5-ylidene)-1-nondecylpiperidine hydrochloride] | −132 mmHg | −50 mmHg | 
COC(=O)c1cccc(C=CCN2CCC(=C3c4ccccc4C=Cc4ccccc43)CC2)c1.Cl [Example 375, 4-(5H-Dibenzo[a,d]cyclohepten-5-ylidene)-1-(3-methoxycarbonylcinnamyl)piperidine hydrochloride] |  |  | Decrease in systolic blood pressure (mmHg) time after administration (hour) 0.5 (dose 1 mg/kg i.v. bolus): −126 mmHg; Decrease in systolic blood pressure (mmHg) time after administration (hour) 4 (dose 1 mg/kg i.v. bolus): −70 mmHg
C1=Cc2ccccc2C(=C2CCN(Cc3ccncc3)CC2)c2ccccc21.Cl.Cl [Example 163, 4-(5H-Dibenzo[a,d]cyclohepten-5-ylidene)-1-(4-Picolyl)piperidine dihydrochloride] | −1 mmHg | 4 mmHg | 
Cl.OC(CCN1CCC(=C2c3ccccc3C=Cc3ccccc32)CC1)c1ccc(F)cc1 (stereo not drawn) [Example 107, 3-(4-(5H-Dibenzo[a,d]cyclohepten-5-ylidene)-1-piperidinyl)-1-hydroxy-1-(4-fluorophenyl)propane hydrochloride] | −88 mmHg | −11 mmHg | 
COc1ccc(C(=O)CCCN2CCC(=C3c4ccccc4CCc4ccccc43)CC2)cc1OC.Cl [Example 187, 4-(4-(10,11-Dihydro-5H-dibenzo[a,d]cyclohepten-5-ylidene)-1-piperidinyl)-3′,4′-dimethoxy-butyrophenone hydrochloride] | −47 mmHg | −9 mmHg | 
Cl.O=C(CCN1CCC(=C2c3ccccc3C=Cc3ccccc32)CC1)NC1CCCCC1 [Example 226, N-(3,(4-(5H-Dibenzo[a,d]cyclohepten-5-ylidene)-1-piperidinyl)propanoyl)cyclohexylamine hydrochloride] | −131 mmHg | −16 mmHg | 
COc1cc2c(cc1OC)CC(CCN1CCC(=C3c4ccccc4C=Cc4ccccc43)CC1)C2.Cl [Example 240] |  |  | Decrease in systolic blood pressure (mmHg) time after administration (hour) 0.5 (dose 3 mg/kg i.v. bolus): −118 mmHg; Decrease in systolic blood pressure (mmHg) time after administration (hour) 4 (dose 3 mg/kg i.v. bolus): −5 mmHg
Cl.OC1CCC(CCCCN2CCC(=C3c4ccccc4C=Cc4ccccc43)CC2)CC1 (stereo not drawn) [Example 296, 1-(1-(4-Hydroxy)cyclohexyl)-4-(4-(5H-dibenzo[a,d]cyclohepten-5-ylidene)-1-piperidinyl)butane hydrochloride] | −109 mmHg | −14 mmHg | 
COc1cc(C=CCN2CCC(=C3c4ccccc4C=Cc4ccccc43)CC2)ccc1[N+](=O)[O-].Cl [Example 387, 4-(5H-Dibenzo[a,d]cyclohepten-5-ylidene)-1-(3-methoxy-4-nitrocinnamyl)piperidine hydrochloride] | −112 mmHg | −50 mmHg | 
COc1ccc(CCCN2CCC(=C3c4ccccc4C=Cc4ccccc43)CC2)c(OC)c1.Cl.Cl [Example 328, 3-(4-(5H-Dibenzo[a,d]cyclohepten-5-ylidene)-1-piperidinyl)-1-(2,4-dimethoxyphenyl)propane dihydrochloride] | −125 mmHg | −87 mmHg | 
COc1ccc(OC)c(C=CCN2CCC(=C3c4ccccc4C=Cc4ccccc43)CC2)c1.Cl [Example 343, 4-(5H-Dibenzo[a,d]cyclohepten-5-ylidene)-1-(2,5-dimethoxycinnamyl)piperidine hydrochloride] |  |  | Decrease in systolic blood pressure (mmHg) time after administration (hour) 0.5 (dose 3 mg/kg i.v. bolus): −83 mmHg; Decrease in systolic blood pressure (mmHg) time after administration (hour) 4 (dose 3 mg/kg i.v. bolus): −45 mmHg
Cl.O=[N+]([O-])c1cccc2c1CC(CCN1CCC(=C3c4ccccc4C=Cc4ccccc43)CC1)C2 (stereo not drawn) [Example 354, 2-(2-(4-(5H-Dibenzo[a,d]cyclohepten-5-ylidene)-1-piperidinyl)-1-ethyl)-4′-nitroindan hydrochloride] |  |  | Decrease in systolic blood pressure (mmHg) time after administration (hour) 0.5 (dose 3 mg/kg i.v. bolus): −89 mmHg; Decrease in systolic blood pressure (mmHg) time after administration (hour) 4 (dose 3 mg/kg i.v. bolus): −8 mmHg
